# According to ChEMBL document CHEMBL1136438, “Inhibitors of hepatitis C virus NS3.4A protease 1. Non-charged tetrapeptide variants” (Bioorg Med Chem Lett, 2003):
# *1 amine or outer side, *2 acyl side, *3 side chain or, on linkers, in order; H or OH if unused. Where a SMILES comes first, the peptide text is derived from it. Side-chain parts run from the residue outwards. [ ]: non-standard residue; d: D form. The star is where a group is joined. ξ: configuration not given here. Pro(4R-OPh) = O=C(O)[C@@H]1C[C@@H](Oc2ccccc2)CN1; CH2(1-naphthyl) = c1ccc2c(C*)cccc2c1; NH(1-naphthyl) = c1ccc2c(N*)cccc2c1; Adipoyl = O=C(CCCCC(=O)[*:2])[*:1]; 1Naphthoyl = O=C(c1cccc2ccccc12)*; 2Naphthoyl = O=C(c1ccc2ccccc2c1)*; Pyrazinecarbonyl = O=C(c1cnccn1)*; Hyp = O=C(O)[C@@H]1C[C@@H](O)CN1; ξAla(CF3) = NC(CC(F)(F)F)C(=O)O; Nva = CCC[C@H](N)C(=O)O; X1 = c1ccc2cc(C*)ccc2c1; X2 = Clc1ccc(Cl)c(N*)c1; X4 = COc1ccc(OC)c(N*)c1; 2Abz = Nc1ccccc1C(=O)O; Abu = CC[C@H](N)C(=O)O; X3 = c1ccc2c(c1)CCCN2*; Aib = CC(C)(N)C(=O)O; CO = O=C([*:1])[*:2]; Bz = O=C(c1ccccc1)*; NHPh = c1ccc(N*)cc1; Bn = c1ccc(C*)cc1
# Biological target: Hepatitis C virus serine protease, NS3/NS4A (Hepatitis C virus, UniProt D2K2A8+A3EZI9)
# Sequence (D2K2A8 whole entry): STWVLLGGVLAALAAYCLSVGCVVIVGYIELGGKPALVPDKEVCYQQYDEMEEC
# Sequence (A3EZI9 whole entry): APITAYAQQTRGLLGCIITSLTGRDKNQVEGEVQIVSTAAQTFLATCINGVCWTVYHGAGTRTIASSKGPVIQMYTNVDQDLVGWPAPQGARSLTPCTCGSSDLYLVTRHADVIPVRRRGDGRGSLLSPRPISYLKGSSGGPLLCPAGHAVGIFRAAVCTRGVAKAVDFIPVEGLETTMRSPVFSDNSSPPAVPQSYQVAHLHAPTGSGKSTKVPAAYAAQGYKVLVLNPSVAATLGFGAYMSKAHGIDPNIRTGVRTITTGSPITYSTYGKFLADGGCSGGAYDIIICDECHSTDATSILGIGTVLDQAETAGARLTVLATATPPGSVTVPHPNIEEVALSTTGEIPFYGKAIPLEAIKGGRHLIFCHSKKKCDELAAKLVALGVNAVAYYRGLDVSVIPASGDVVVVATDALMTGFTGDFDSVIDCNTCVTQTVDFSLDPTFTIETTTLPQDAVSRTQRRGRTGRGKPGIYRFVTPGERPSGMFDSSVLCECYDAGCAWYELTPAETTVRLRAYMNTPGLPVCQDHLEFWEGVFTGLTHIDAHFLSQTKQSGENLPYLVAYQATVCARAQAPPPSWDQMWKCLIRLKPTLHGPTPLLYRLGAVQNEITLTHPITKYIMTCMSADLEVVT
# Assay: (§1) Inhibition of HCV (Hepatitis C Virus) NS3-4A protease.
# Assay type: protein-complex assay, Hepacivirus hominis
row,SMILES,Ki [µM]
1,CC[C@@H](C=O)NC(=O)[C@@H]1C[C@@H](Oc2ccc3ccccc3c2)CN1C(=O)[C@@H](NC(=O)[C@@H](NC(=O)c1cnccn1)C(C)C)C(C)C,7.4
2,CC[C@@H](C=O)NC(=O)[C@@H]1C[C@@H](OCc2ccc3ccccc3c2)CN1C(=O)[C@@H](NC(=O)[C@@H](NC(=O)c1cnccn1)C(C)C)C(C)C (Pyrazinecarbonyl-VV[Hyp](X1)[Abu]-aldehyde),1.7
3,CC[C@@H](C=O)NC(=O)[C@@H]1C[C@@H](OC(=O)Nc2ccccc2)CN1C(=O)[C@@H](NC(=O)[C@@H](NC(=O)c1cnccn1)C(C)C)C(C)C (Pyrazinecarbonyl-VV[Hyp]([CO-NHPh])[Abu]-aldehyde),22.3
4,CC[C@@H](C=O)NC(=O)[C@@H]1C[C@@H](OC(=O)Nc2cc(Cl)ccc2Cl)CN1C(=O)[C@@H](NC(=O)[C@@H](NC(=O)c1cnccn1)C(C)C)C(C)C (Pyrazinecarbonyl-VV[Hyp]([CO-X2])[Abu]-aldehyde),3.2
5,CC[C@@H](C=O)NC(=O)[C@@H]1C[C@@H](OCc2cccc3ccccc23)CN1C(=O)[C@@H](NC(=O)[C@@H](NC(=O)c1cnccn1)C(C)C)C(C)C (Pyrazinecarbonyl-VV[Hyp](CH2(1-naphthyl))[Abu]-aldehyde),2.9
6,CC[C@@H](C=O)NC(=O)[C@@H]1C[C@@H](Oc2cccc3cccnc23)CN1C(=O)[C@@H](NC(=O)[C@@H](NC(=O)c1cnccn1)C(C)C)C(C)C,> 50
7,CC[C@@H](C=O)NC(=O)[C@@H]1C[C@@H](OC(=O)Nc2cc(OC)ccc2OC)CN1C(=O)[C@@H](NC(=O)[C@@H](NC(=O)c1cnccn1)C(C)C)C(C)C (Pyrazinecarbonyl-VV[Hyp]([CO-X4])[Abu]-aldehyde),7.9
8,CC[C@@H](C=O)NC(=O)[C@@H]1C[C@@H](OC(=O)c2ccccc2)CN1C(=O)[C@@H](NC(=O)[C@@H](NC(=O)c1cnccn1)C(C)C)C(C)C (Pyrazinecarbonyl-VV[Hyp](Bz)[Abu]-aldehyde),5.8
9,CC[C@@H](C=O)NC(=O)[C@@H]1C[C@@H](OC(=O)Nc2cccc3ccccc23)CN1C(=O)[C@@H](NC(=O)[C@@H](NC(=O)c1cnccn1)C(C)C)C(C)C (Pyrazinecarbonyl-VV[Hyp]([CO-NH(1-naphthyl)])[Abu]-aldehyde),12.5
10,CC[C@@H](C=O)NC(=O)[C@@H]1C[C@@H](OC(=O)Nc2ccccc2C(=O)OC)CN1C(=O)[C@@H](NC(=O)[C@@H](NC(=O)c1cnccn1)C(C)C)C(C)C (Pyrazinecarbonyl-VV[Hyp]([CO-2Abz-OMe])[Abu]-aldehyde),2.5
11,CC[C@@H](C=O)NC(=O)[C@@H]1C[C@@H](OC(=O)c2cccc3ccccc23)CN1C(=O)[C@@H](NC(=O)[C@@H](NC(=O)c1cnccn1)C(C)C)C(C)C (Pyrazinecarbonyl-VV[Hyp](1Naphthoyl)[Abu]-aldehyde),1.9
12,CC[C@@H](C=O)NC(=O)[C@@H]1C[C@@H](Oc2ccccc2)CN1C(=O)[C@@H](NC(=O)[C@@H](NC(=O)c1cnccn1)C(C)C)C(C)C (Pyrazinecarbonyl-VV[Pro(4R-OPh)][Abu]-aldehyde),3.9
13,CC[C@@H](C=O)NC(=O)[C@@H]1C[C@@H](OC(=O)c2ccc3ccccc3c2)CN1C(=O)[C@@H](NC(=O)[C@@H](NC(=O)c1cnccn1)C(C)C)C(C)C (Pyrazinecarbonyl-VV[Hyp](2Naphthoyl)[Abu]-aldehyde),0.4
14,CC[C@@H](C=O)NC(=O)[C@@H]1C[C@@H](OC(=O)c2ccc3ccccc3c2)CN1C(=O)[C@@H](NC(=O)[C@@H](NC(=O)CCCCC(=O)O)C(C)C)C(C)C (Adipoyl-VV[Hyp](2Naphthoyl)[Abu]-aldehyde),0.11
15,CC[C@@H](C=O)NC(=O)[C@@H]1C[C@@H](OC(=O)N2CCCc3ccccc32)CN1C(=O)[C@@H](NC(=O)[C@@H](NC(=O)c1cnccn1)C(C)C)C(C)C (Pyrazinecarbonyl-VV[Hyp]([CO-X3])[Abu]-aldehyde),0.89
16,CC[C@@H](C=O)NC(=O)[C@@H]1C[C@@H](Oc2cccc3ccccc23)CN1C(=O)[C@@H](NC(=O)[C@@H](NC(=O)c1cnccn1)C(C)C)C(C)C,2.1

# Biological target: Hepatitis C virus serine protease, NS3/NS4A (Hepatitis C virus, UniProt A3EZI9+D2K2A8)
# Sequence (D2K2A8 whole entry): as the sequence (D2K2A8 whole entry) above
# Sequence (A3EZI9 whole entry): as the sequence (A3EZI9 whole entry) above
# Assay: as §1
# Assay type: protein-complex assay, Hepacivirus hominis
row,SMILES,Ki [µM]
1,CC[C@@H](C=O)NC(=O)[C@@H]1C[C@@H](OCc2ccccc2)CN1C(=O)[C@@H](NC(=O)[C@@H](NC(=O)c1cnccn1)C(C)C)C(C)C (Pyrazinecarbonyl-VV[Hyp](Bn)[Abu]-aldehyde),12
2,CC(C)[C@H](NC(=O)c1cnccn1)C(=O)N[C@H](C(=O)N1C[C@H](OCc2ccccc2)C[C@H]1C(=O)NC(C)(C)C=O)C(C)C (Pyrazinecarbonyl-VV[Hyp](Bn)[Aib]-aldehyde),> 50
3,CC(C)[C@H](NC(=O)c1cnccn1)C(=O)N[C@H](C(=O)N1C[C@H](OCc2ccccc2)C[C@H]1C(=O)NC(C=O)CC(F)(F)F)C(C)C (some centres not stated) (Pyrazinecarbonyl-VV[Hyp](Bn)[ξAla(CF3)]-aldehyde),3.1
4,CC[C@@H](C=O)NC(=O)[C@@H]1C[C@@H](OCc2ccccc2)CN1C(=O)[C@@H](NC(=O)[C@@H](NC(=O)[C@H](CC(=O)O)NC(=O)[C@H](CCC(=O)O)NC(C)=O)C(C)C)C(C)C (Ac-EDVV[Hyp](Bn)[Abu]-aldehyde),0.89
5,CCC[C@@H](C=O)NC(=O)[C@@H]1C[C@@H](OCc2ccccc2)CN1C(=O)[C@@H](NC(=O)[C@@H](NC(=O)c1cnccn1)C(C)C)C(C)C (Pyrazinecarbonyl-VV[Hyp](Bn)[Nva]-aldehyde),3.8
6,COC[C@@H](C=O)NC(=O)[C@@H]1C[C@@H](OCc2ccccc2)CN1C(=O)[C@@H](NC(=O)[C@@H](NC(=O)c1cnccn1)C(C)C)C(C)C (Pyrazinecarbonyl-VV[Hyp](Bn)S(Me)-aldehyde),> 50
